# Data: PubChem BioAssay (NCI)
#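 Abbreviation: GI50, concentration required for 50% inhibition of growth. The concentration for full growth arrest is given as TGI.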
# Key:
# Experiment in all cases: growth of human tumour cells (NCI), 384-well format
# 786-0 renal = tested on: 786-0 renal
# A498 renal = tested on: A498 renal
# A549 NSCLC = tested on: A549 NSCLC
# ACHN renal = tested on: ACHN renal
# BT-549 breast = tested on: BT-549 breast
# CAKI-1 renal = tested on: CAKI-1 renal
# COLO 205 colon = tested on: COLO 205 colon
# DU-145 prostate = tested on: DU-145 prostate
# EKVX NSCLC = tested on: EKVX NSCLC
# HCC-2998 colon = tested on: HCC-2998 colon
# HCT-116 colon = tested on: HCT-116 colon
# HCT-15 colon = tested on: HCT-15 colon
# HL-60(TB) leukemia = tested on: HL-60(TB) leukemia
# HOP-62 NSCLC = tested on: HOP-62 NSCLC
# HOP-92 NSCLC = tested on: HOP-92 NSCLC
# HS 578T breast = tested on: HS 578T breast
# HT29 colon = tested on: HT29 colon
# IGROV1 ovarian = tested on: IGROV1 ovarian
# KM12 colon = tested on: KM12 colon
# LOX IMVI melanoma = tested on: LOX IMVI melanoma
# M14 melanoma = tested on: M14 melanoma
# MALME-3M melanoma = tested on: MALME-3M melanoma
# MCF7 breast = tested on: MCF7 breast
# MDA-MB-231 breast = tested on: MDA-MB-231 breast
# MDA-MB-435 melanoma = tested on: MDA-MB-435 melanoma
# MDA-MB-468 breast = tested on: MDA-MB-468 breast
# MOLT-4 leukemia = tested on: MOLT-4 leukemia
# NCI-H226 lung = tested on: NCI-H226 lung
# NCI-H23 lung = tested on: NCI-H23 lung
# NCI-H322M lung = tested on: NCI-H322M lung
# NCI-H460 NSCLC = tested on: NCI-H460 NSCLC
# NCI-H522 lung = tested on: NCI-H522 lung
# NCI/ADR-RES ovarian = tested on: NCI/ADR-RES ovarian
# OVCAR-3 ovarian = tested on: OVCAR-3 ovarian
# OVCAR-5 ovarian = tested on: OVCAR-5 ovarian
# OVCAR-8 ovarian = tested on: OVCAR-8 ovarian
# PC-3 prostate = tested on: PC-3 prostate
# RPMI-8226 leukemia = tested on: RPMI-8226 leukemia
# RXF 393 renal = tested on: RXF 393 renal
# SF-268 CNS = tested on: SF-268 CNS
# SF-539 CNS = tested on: SF-539 CNS
# SK-MEL-28 melanoma = tested on: SK-MEL-28 melanoma
# SK-MEL-5 melanoma = tested on: SK-MEL-5 melanoma
# SK-OV-3 ovarian = tested on: SK-OV-3 ovarian
# SN12C renal = tested on: SN12C renal
# SNB-19 CNS = tested on: SNB-19 CNS
# SNB-75 CNS = tested on: SNB-75 CNS
# SW-620 colon = tested on: SW-620 colon
# T-47D breast = tested on: T-47D breast
# TK-10 renal = tested on: TK-10 renal
# U251 glioblastoma = tested on: U251 glioblastoma
# UACC-257 melanoma = tested on: UACC-257 melanoma
# UACC-62 melanoma = tested on: UACC-62 melanoma
# UO-31 renal = tested on: UO-31 renal
structure (smiles),measurement,setting,value
C[C@]12CC[C@H](O)CC1=CC[C@@H]1[C@@H]2CC[C@]2(C)C(c3cccnc3)=CC[C@@H]12,GI50,786-0 renal,1930 nM
same,TGI,786-0 renal,3.88 µM
same,GI50,A498 renal,15.8 µM
same,TGI,A498 renal,45.1 µM
same,GI50,A549 NSCLC,63.9 µM
same,TGI,A549 NSCLC,> 100 µM
same,GI50,ACHN renal,22.9 µM
same,TGI,ACHN renal,> 100 µM
same,GI50,BT-549 breast,9.12 µM
same,TGI,BT-549 breast,69.7 µM
same,GI50,CAKI-1 renal,52.8 µM
same,TGI,CAKI-1 renal,> 100 µM
same,GI50,COLO 205 colon,42.1 µM
same,TGI,COLO 205 colon,> 100 µM
same,GI50,DU-145 prostate,> 100 µM
same,TGI,DU-145 prostate,> 100 µM
same,GI50,EKVX NSCLC,25.9 µM
same,TGI,EKVX NSCLC,> 100 µM
same,GI50,HCC-2998 colon,> 100 µM
same,TGI,HCC-2998 colon,> 100 µM
same,GI50,HCT-116 colon,57 µM
same,TGI,HCT-116 colon,> 100 µM
same,GI50,HCT-15 colon,9.74 µM
same,TGI,HCT-15 colon,> 100 µM
same,GI50,HL-60(TB) leukemia,4.06 µM
same,TGI,HL-60(TB) leukemia,10.1 µM
same,GI50,HOP-62 NSCLC,20 µM
same,TGI,HOP-62 NSCLC,> 100 µM
same,GI50,HOP-92 NSCLC,25.2 µM
same,TGI,HOP-92 NSCLC,> 100 µM
same,GI50,HS 578T breast,9.52 µM
same,TGI,HS 578T breast,49 µM
same,GI50,HT29 colon,15.2 µM
same,TGI,HT29 colon,96.1 µM
same,GI50,IGROV1 ovarian,60.4 µM
same,TGI,IGROV1 ovarian,> 100 µM
same,GI50,KM12 colon,38.3 µM
same,TGI,KM12 colon,> 100 µM
same,GI50,LOX IMVI melanoma,4.93 µM
same,TGI,LOX IMVI melanoma,> 100 µM
same,GI50,M14 melanoma,> 100 µM
same,TGI,M14 melanoma,> 100 µM
same,GI50,MALME-3M melanoma,3.99 µM
same,TGI,MALME-3M melanoma,61.5 µM
same,GI50,MCF7 breast,> 100 µM
same,TGI,MCF7 breast,> 100 µM
same,GI50,MDA-MB-231 breast,> 100 µM
same,TGI,MDA-MB-231 breast,> 100 µM
same,GI50,MDA-MB-435 melanoma,> 100 µM
same,TGI,MDA-MB-435 melanoma,> 100 µM
same,GI50,MDA-MB-468 breast,5.46 µM
same,TGI,MDA-MB-468 breast,> 100 µM
same,GI50,MOLT-4 leukemia,2990 nM
same,TGI,MOLT-4 leukemia,25 µM
same,GI50,NCI-H226 lung,4.86 µM
same,TGI,NCI-H226 lung,> 100 µM
same,GI50,NCI-H23 lung,> 100 µM
same,TGI,NCI-H23 lung,> 100 µM
same,GI50,NCI-H322M lung,> 100 µM
same,TGI,NCI-H322M lung,> 100 µM
same,GI50,NCI-H460 NSCLC,> 100 µM
same,TGI,NCI-H460 NSCLC,> 100 µM
same,GI50,NCI-H522 lung,> 100 µM
same,TGI,NCI-H522 lung,> 100 µM
same,GI50,NCI/ADR-RES ovarian,> 100 µM
same,TGI,NCI/ADR-RES ovarian,> 100 µM
same,GI50,OVCAR-3 ovarian,> 100 µM
same,TGI,OVCAR-3 ovarian,> 100 µM
same,GI50,OVCAR-5 ovarian,> 100 µM
same,TGI,OVCAR-5 ovarian,> 100 µM
same,GI50,OVCAR-8 ovarian,> 100 µM
same,TGI,OVCAR-8 ovarian,> 100 µM
same,GI50,PC-3 prostate,> 100 µM
same,TGI,PC-3 prostate,> 100 µM
same,GI50,RPMI-8226 leukemia,2360 nM
same,TGI,RPMI-8226 leukemia,4.65 µM
same,GI50,RXF 393 renal,1830 nM
same,TGI,RXF 393 renal,4.72 µM
same,GI50,SF-268 CNS,> 100 µM
same,TGI,SF-268 CNS,> 100 µM
same,GI50,SF-539 CNS,> 100 µM
same,TGI,SF-539 CNS,> 100 µM
same,GI50,SK-MEL-28 melanoma,> 100 µM
same,TGI,SK-MEL-28 melanoma,> 100 µM
same,GI50,SK-MEL-5 melanoma,> 100 µM
same,TGI,SK-MEL-5 melanoma,> 100 µM
same,GI50,SK-OV-3 ovarian,> 100 µM
same,TGI,SK-OV-3 ovarian,> 100 µM
same,GI50,SN12C renal,> 100 µM
same,TGI,SN12C renal,> 100 µM
same,GI50,SNB-19 CNS,> 100 µM
same,TGI,SNB-19 CNS,> 100 µM
same,GI50,SNB-75 CNS,> 100 µM
same,TGI,SNB-75 CNS,> 100 µM
same,GI50,SW-620 colon,> 100 µM
same,TGI,SW-620 colon,> 100 µM
same,GI50,T-47D breast,> 100 µM
same,TGI,T-47D breast,> 100 µM
same,GI50,TK-10 renal,> 100 µM
same,TGI,TK-10 renal,> 100 µM
same,GI50,U251 glioblastoma,> 100 µM
same,TGI,U251 glioblastoma,> 100 µM
same,GI50,UACC-257 melanoma,> 100 µM
same,TGI,UACC-257 melanoma,> 100 µM
same,GI50,UACC-62 melanoma,> 100 µM
same,TGI,UACC-62 melanoma,> 100 µM
same,GI50,UO-31 renal,> 100 µM
same,TGI,UO-31 renal,> 100 µM
